Data published in patent US10758585B2, “Beautyberry total glycosides extract and preparation method and use thereof” (Suzhou Neupharma Co., Ltd., priority 2012, dated 2020).

System: SH-SY5Y nerve cells
Experiment: Protective effect against MPP+ induced SH-SY5Y nerve cell injury (MTT cell viability)
Type: cell-based
Conditions: 500 μM MPP+; for protective effect against MPP+ induced SH-SY5Y nerve cell injury: 24 h pre-protection + 24 h co-incubation, MTT, overall statement
Description: SH-SY5Y nerve cells were purchased from ATTC (American Type Culture Collection, Rockville, Md., U.S.A). The cells was cultured with RPMI1640 medium (a product of Hyclone Company) containing 10% fetal bovine serum, 2 mM/L glutamine, as well as 1% penicillium and streptomycin doubleantibiotics, in the incubator at 37° C. and 5% CO2.
The extract tested was the beautyberry total glycosides extract prepared in Example 5 which contained 37.75 wt % verbascoside and 28.01 wt % Arenarioside. The beautyberry total glycosides extract prepared in Example 5, and stock solutions of verbascoside and Arenarioside prepared in 2.1 above were dissolved and formulated respectively with phosphate buffer (PBS) and the resulted solutions were diluted to test concentrations with RPMI 1640 culture medium. MPP+ solution was prepared by dissolving MPP+ to 1 mM with PBS. The test concentration of MPP+ was 500 μM diluted with the culture medium. MTT was formulated with PBS, at a concentration of 0.5 mg/ml, and was filtered to remove bacteria using a 0.22 μm filter membrane prior to use.
SH-SY5Y nerve cells at a logarithmic growth phase were collected and counted with a cell counter. 200 μl of cell suspension with 4×10^4/ml was added into each well of the 96-well plate (converted to 8×10^3/200 μl of the culture medium) and was subjected to adherent culture in the incubator at 37° C. and 5% CO2 for 24 hours. The experiment included 11 groups: (1) a blank control group, wherein RPMI 1640 culture medium was used, and incubation at 5% CO2 and 37° C. was performed for 24 h; (2) a model group, wherein RPMI 1640 culture medium containing 500 μM MPP+ was used, and incubation at 5% CO2 and 37° C. was performed for 24 h; (3) a high dose group (16 μg/mL), a medium dose group (1.6 μg/mL), and a low dose group (0.16 μg/mL) (equivalent to 10 μM, 1 μM, and 0.1 μM verbascoside, respectively) of tests of the extract of Example 5 in the present invention; (4) a high dose group (10 μM), amedium dose group (1 μM), and a low dose group (0.1 μM) of theverbascoside monomer prepared above; and (5) a high dose group (10 μM), a medium dose group (1 μM), and a low dose group (0.1 μM) of the Arenarioside monomer prepared above; wherein, in each experimental dosage groups of (3), (4), and (5), mother liquid of the drug to be tested was firstly diluted to a set dosage concentration with the RPMI 1640 culture medium, then added at 100 μL into the cells, which were pre-protected at 5% CO2 and 37° C. for 24 h, then supernatant was carefully pipetted and discarded, then, mother liquid of the drug to be tested was diluted to a set dosage concentration with the RPMI 1640 culture medium containing 500 μM MPP+ that was formulated beforehand, then added at 100 μL into the cells, which were proceeded to incubation at 5% CO2 and 37° C. for 24 h. Supernatant was carefully pipetted and discarded, placed upside-down on an absorbent paper and patted dry. After the blank group and themodel group were incubated for 24 h, operations were performed using the same method. 5 parallel wells were provided for each group of the samples. MTT at a concentration of 0.5 mg/ml was added into each well of each group above, and incubated at 5% CO2 and 37° C. for 4 h. Supernatant was carefully pipetted and discarded, placed upside-down on an absorbent paper and patted dry. 200 μL of dimethyl sulfoxide (DMSO) was added into each well, and shaken for 300 s. The absorbance value of each well was determined at OD 570 nm, and cell viability was calculated according to the following formula: […]

| Compound | cell viability compared with the model group (0.1 μM monomer) | cell viability compared with the model group (1 μM monomer) | protective effect against MPP+ induced SH-SY5Y nerve cell injury |
| --- | --- | --- | --- |
| CC1O[C@@H](O[C@@H]2C(O)[C@H](OCCc3ccc(O)c(O)c3)OC(CO[C@@H]3OC[C@@H](O)[C@@H](O)C3O)[C@@H]2OC(=O)/C=C/c2ccc(O)c(O)c2)C(O)[C@@H](O)[C@H]1O (stereo partly drawn) [Arenarioside] | significant higher cell viability as compared with the model group (p<0.01) | significant higher cell viability as compared with the model group (p<0.01) | has a protective effect |
| C[C@@H]1O[C@@H](O[C@@H]2[C@@H](O)[C@H](OCCc3ccc(O)c(O)c3)O[C@H](CO)[C@H]2OC(=O)/C=C/c2ccc(O)c(O)c2)[C@H](O)[C@H](O)[C@H]1O [verbascoside] | significant difference compared to the model group (p<0.01) | significant difference compared to the model group (p<0.01) | has a protective effect |
